Data taken from ChEMBL document CHEMBL1201862, “PubChem BioAssay data set” (2004).
Active and inactive are the calls of the source.

Legend:
[1] = P. falciparum Dd2 growth inhibitors, dose response, SYBR Green, cherry-picked samples (AID 1159567); assay type: functional, cell-based
[2] = system: Streptococcus sp. 'group A'; assay: growth inhibition of control SK(-) GAS strain, dose response, counter-screen for streptokinase expression inhibitor project, luminescence, kanamycin, BacTiterGlo, confirmation (AID 1900); assay type: functional, organism-based
[3] = target: T1, Polyadenylate-binding protein 1 (Homo sapiens, UniProt P11940); assay: PABP1 MLLE–PAM2 binding inhibitor potency, dose response, biochemical, fluorescence polarization, FITC-PAM2 peptide (AID 602259); assay type: functional; details: read-out: IC50_Mean
T1 sequence (P11940 whole entry): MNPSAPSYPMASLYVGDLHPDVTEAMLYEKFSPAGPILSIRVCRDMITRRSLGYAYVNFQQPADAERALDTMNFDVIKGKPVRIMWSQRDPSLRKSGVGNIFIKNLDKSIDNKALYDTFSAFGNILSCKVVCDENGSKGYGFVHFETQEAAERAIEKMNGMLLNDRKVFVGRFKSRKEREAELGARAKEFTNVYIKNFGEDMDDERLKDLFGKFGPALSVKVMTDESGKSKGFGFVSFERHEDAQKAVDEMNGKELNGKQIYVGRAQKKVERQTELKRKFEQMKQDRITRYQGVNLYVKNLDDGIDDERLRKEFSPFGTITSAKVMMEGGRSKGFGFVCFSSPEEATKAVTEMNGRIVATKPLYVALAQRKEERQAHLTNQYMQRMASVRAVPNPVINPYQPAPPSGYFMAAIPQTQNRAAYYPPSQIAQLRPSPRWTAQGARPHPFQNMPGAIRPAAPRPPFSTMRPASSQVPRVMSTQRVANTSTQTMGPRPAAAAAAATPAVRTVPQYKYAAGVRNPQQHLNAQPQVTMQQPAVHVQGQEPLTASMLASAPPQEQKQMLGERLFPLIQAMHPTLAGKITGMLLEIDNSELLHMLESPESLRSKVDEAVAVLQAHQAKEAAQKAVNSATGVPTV

[4] = target: T1, Polyadenylate-binding protein 1; assay: PABP1 MLLE–PAM2 interaction inhibitors, dose response, miRNA deadenylation inhibitor project, biochemical, fluorescence polarization, Cy5-PAM2 peptide, secondary (AID 602260); assay type: functional; details: read-out: IC50_Mean
Streptococcus = assay: Group A Streptococcus viability loss, dose response, counter-screen for streptokinase expression inhibitor project, luminescence, BacTiterGlo (AID 1915); assay type: functional, organism-based;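 also: potency for reduction of bacterial viability or growth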
Estrogen receptor = target: T2, Estrogen receptor (Homo sapiens, UniProt P03372);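 also: potency for inhibiting coactivator peptide recruitment to the receptor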
T2 sequence (P03372 whole entry): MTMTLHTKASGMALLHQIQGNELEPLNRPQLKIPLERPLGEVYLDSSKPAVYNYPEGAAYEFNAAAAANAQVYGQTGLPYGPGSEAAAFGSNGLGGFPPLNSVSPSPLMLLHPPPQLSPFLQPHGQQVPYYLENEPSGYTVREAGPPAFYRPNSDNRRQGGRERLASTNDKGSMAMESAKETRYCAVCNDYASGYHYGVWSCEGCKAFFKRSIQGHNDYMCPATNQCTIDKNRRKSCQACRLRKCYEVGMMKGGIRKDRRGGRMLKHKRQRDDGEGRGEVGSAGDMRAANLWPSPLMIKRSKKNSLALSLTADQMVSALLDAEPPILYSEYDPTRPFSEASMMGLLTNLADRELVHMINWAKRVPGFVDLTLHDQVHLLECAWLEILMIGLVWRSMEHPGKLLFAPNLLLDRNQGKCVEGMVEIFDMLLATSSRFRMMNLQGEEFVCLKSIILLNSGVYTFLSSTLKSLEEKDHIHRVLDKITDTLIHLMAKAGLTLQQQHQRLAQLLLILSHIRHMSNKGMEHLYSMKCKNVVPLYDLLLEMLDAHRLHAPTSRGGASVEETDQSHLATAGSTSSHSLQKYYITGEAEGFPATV

[5] = target: T3, Heat shock factor protein 1 (Mus musculus, UniProt P38532); assay: HSF1 potentiators in luciferase reporter cells, confirmation, cell-based, NIH3T3, luminescence, dose retest (AID 435004); assay type: functional;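 also: stress induced by proteasome inhibitor MG132 added 30 min after compound; luciferase reporter driven by HSF1 response element in NIH3T3 cells; actives raise luminescence as potentiators of the MG132 stress response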
T3 sequence (P38532 whole entry): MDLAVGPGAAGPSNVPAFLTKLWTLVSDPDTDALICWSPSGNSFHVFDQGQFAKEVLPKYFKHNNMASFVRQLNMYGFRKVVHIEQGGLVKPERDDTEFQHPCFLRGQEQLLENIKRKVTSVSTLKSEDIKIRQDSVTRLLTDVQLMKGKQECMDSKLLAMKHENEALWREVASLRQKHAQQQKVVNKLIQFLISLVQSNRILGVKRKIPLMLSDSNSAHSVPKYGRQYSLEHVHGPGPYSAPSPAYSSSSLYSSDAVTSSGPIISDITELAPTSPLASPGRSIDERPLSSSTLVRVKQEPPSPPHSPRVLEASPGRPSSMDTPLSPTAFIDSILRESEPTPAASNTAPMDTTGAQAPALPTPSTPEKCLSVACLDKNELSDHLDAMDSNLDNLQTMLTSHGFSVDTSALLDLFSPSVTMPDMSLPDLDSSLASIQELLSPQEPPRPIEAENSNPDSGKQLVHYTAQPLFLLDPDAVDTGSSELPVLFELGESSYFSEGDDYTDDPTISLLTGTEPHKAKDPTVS

cells = assay type: functional
Aminopeptidase N = target: T4, Aminopeptidase N (Plasmodium falciparum FcB1/Columbia, UniProt O96935); assay: P. falciparum M1AAP inhibitors, biochemical, fluorogenic H-Leu-NHMec substrate, 1536-well (AID 1445); design: species or system Plasmodium falciparum 3D7, 3D7
T4 sequence (O96935 whole entry): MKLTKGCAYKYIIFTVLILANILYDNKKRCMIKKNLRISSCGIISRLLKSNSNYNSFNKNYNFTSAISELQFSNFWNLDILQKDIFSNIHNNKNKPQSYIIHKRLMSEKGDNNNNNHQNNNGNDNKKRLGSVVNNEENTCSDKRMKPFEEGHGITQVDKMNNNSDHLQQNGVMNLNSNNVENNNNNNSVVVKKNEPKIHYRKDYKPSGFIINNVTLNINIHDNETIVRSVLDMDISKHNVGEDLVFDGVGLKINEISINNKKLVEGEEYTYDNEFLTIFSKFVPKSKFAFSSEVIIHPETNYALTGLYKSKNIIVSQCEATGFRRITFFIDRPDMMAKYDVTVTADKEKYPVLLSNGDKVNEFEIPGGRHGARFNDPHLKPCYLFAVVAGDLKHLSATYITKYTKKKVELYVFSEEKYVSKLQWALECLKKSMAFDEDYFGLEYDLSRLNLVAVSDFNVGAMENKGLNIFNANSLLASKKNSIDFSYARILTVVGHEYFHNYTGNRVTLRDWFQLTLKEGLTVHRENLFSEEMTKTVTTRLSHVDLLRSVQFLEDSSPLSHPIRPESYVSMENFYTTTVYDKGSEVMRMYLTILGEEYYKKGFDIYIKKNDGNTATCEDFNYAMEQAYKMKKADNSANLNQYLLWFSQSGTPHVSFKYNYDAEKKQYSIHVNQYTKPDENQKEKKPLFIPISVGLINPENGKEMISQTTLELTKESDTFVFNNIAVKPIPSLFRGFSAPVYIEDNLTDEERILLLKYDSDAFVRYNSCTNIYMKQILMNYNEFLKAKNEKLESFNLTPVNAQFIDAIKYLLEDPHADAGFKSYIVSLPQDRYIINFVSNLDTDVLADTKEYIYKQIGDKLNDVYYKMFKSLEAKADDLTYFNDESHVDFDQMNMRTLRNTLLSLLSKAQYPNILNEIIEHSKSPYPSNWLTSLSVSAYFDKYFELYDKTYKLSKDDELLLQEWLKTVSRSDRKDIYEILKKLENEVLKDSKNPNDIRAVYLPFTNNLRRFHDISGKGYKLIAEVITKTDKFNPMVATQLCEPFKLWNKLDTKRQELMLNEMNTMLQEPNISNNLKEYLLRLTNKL

Streptokinase A = target: T5, Streptokinase A (Streptococcus pyogenes serotype M1, UniProt P10520); assay: S. pyogenes streptokinase expression inhibitors, potency, dose response, plasminogen activation absorbance, OD405 (AID 1914); assay type: functional, Streptococcus pyogenes M1 GAS;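 also: secreted streptokinase activity via plasminogen activation per viability signal from cell pellet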
T5 sequence (P10520 whole entry): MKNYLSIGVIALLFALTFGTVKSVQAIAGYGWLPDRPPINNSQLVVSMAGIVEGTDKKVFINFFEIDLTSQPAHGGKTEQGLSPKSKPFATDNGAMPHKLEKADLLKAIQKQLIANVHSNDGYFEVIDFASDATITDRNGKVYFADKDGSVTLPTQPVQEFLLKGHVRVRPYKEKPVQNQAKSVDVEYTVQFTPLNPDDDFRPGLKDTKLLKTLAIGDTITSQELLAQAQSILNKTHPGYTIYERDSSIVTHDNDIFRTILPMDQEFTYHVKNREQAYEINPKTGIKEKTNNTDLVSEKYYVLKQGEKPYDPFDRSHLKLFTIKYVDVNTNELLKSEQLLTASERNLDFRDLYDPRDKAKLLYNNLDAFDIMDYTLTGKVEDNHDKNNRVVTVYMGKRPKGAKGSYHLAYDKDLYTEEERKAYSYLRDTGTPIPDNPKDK

Fatty acid synthase = Fatty acid synthase (Homo sapiens, UniProt P49327); assay: FAS thioesterase domain inhibitors, dose response, biochemical, kinetic fluorescence intensity (AID 624326); assay type: functional;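 also: rate of fluorescence rise from hydrolysis of a fluorogenic O-methyl fluorescein ester substrate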
Fatty acid synthase, sequence (P49327 whole entry, the tested form may be a part): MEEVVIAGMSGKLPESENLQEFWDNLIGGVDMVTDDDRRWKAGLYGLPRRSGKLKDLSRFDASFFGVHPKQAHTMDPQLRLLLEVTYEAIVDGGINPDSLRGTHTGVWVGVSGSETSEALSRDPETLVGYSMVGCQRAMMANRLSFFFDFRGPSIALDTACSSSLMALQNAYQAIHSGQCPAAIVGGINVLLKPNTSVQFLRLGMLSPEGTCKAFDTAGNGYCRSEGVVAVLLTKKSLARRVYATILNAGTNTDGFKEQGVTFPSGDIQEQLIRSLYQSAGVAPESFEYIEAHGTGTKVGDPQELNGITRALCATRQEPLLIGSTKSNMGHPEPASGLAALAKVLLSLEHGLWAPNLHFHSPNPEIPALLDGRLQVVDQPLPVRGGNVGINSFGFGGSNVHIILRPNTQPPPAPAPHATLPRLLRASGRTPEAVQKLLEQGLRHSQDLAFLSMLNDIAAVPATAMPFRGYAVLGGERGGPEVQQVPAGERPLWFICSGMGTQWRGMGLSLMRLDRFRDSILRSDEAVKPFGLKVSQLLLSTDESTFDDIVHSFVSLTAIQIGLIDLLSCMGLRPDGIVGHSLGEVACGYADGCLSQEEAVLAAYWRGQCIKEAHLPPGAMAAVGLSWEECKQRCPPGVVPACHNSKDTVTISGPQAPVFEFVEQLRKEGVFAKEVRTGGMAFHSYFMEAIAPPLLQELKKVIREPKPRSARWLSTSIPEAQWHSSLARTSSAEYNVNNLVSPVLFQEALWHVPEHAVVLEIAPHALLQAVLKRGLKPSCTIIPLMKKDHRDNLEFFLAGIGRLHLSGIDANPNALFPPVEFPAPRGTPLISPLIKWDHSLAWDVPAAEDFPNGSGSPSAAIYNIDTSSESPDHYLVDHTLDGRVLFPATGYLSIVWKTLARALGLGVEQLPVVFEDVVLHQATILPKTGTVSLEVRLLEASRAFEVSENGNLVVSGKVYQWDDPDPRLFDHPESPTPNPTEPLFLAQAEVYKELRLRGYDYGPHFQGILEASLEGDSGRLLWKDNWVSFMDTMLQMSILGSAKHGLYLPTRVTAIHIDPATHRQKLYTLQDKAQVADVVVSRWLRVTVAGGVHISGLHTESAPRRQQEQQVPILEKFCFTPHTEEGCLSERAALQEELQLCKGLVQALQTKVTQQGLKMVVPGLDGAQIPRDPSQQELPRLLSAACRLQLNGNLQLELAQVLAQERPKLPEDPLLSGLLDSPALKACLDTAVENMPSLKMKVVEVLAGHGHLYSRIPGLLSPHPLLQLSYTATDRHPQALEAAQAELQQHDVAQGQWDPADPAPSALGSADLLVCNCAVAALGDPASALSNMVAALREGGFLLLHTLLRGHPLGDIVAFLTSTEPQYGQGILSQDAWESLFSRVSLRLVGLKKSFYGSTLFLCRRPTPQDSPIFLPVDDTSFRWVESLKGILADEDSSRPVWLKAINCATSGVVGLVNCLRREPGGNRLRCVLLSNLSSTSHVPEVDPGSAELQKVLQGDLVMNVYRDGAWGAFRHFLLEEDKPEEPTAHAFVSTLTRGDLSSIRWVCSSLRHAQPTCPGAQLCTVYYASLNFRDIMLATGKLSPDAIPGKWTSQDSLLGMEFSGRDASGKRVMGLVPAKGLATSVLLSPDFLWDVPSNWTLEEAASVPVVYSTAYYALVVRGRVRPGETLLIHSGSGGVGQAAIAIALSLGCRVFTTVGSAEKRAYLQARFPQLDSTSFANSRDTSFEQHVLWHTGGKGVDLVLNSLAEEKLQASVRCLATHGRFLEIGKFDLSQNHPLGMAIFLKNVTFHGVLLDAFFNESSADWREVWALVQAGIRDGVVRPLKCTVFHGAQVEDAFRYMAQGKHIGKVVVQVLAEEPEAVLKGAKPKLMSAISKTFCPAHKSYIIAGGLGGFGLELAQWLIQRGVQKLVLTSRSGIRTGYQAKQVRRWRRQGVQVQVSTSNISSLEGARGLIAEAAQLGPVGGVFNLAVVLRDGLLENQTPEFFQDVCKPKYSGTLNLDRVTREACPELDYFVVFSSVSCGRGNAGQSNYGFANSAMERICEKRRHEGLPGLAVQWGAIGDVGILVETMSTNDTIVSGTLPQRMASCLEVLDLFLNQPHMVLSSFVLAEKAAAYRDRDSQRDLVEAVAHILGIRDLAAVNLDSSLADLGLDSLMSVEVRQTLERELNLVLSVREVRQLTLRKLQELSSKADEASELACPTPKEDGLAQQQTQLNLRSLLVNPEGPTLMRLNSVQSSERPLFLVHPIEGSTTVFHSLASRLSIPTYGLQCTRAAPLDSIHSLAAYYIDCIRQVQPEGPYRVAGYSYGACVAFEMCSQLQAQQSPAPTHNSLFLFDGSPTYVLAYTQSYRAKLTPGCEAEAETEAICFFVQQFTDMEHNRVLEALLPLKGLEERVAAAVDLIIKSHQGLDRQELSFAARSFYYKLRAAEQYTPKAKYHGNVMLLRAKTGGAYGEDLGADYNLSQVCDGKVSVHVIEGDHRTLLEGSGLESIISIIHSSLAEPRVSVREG

[6] = inhibitors of clade B AD8 Env fusion, dose response, cell-based, cherry-pick (AID 652062); assay type: functional;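 also: luciferase signal from cell-cell fusion driven by HIV-1 clade B AD8 Env; potency is for inhibitors of fusion seen as a drop in luminescence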
[7] = inhibitors of HIV Env-driven cell fusion, dose response, cherry-pick (AID 652057); assay type: functional, cell-based
[8] = NIH-3T3 fibroblast cytotoxicity, dose response, cytotoxicity control, cell-based, fluorescence, Alamar Blue, secondary assay (AID 2327); assay type: functional;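 also: NIH-3T3 mouse fibroblasts cultured with fluconazole at 8 µg/mL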
[9] = C. albicans growth with fluconazole, confirmation, fluorescence, retest (AID 2467); assay type: functional, cell-based
[10] = growth suppression of beta-catenin-knockout colon cells, dose response, cell-based, HCT116, human colon tumor (AID 1045); assay type: functional;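 also: HCT116 colon tumor cells with beta catenin knocked out; cells exposed to compound for 60 hours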
[11] = growth suppression of PTEN-null colon cells, dose response, cell-based, HCT116 PTEN knockout (AID 1047); assay type: functional;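 also: HCT116 colon tumor cells with PTEN knocked out; cells exposed to compound for 60 hours before readout; potency for loss of cell viability measured by luminescence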

COc1ccc(-c2ccc([C@@H]3[C@@H](CO)N4CCCCN(C(=O)c5ccc6c(c5)OCO6)C[C@@H]34)cc2)cc1
AC50 [1]: 5.97 µM (active)

CCCOc1ccc(C(=O)NNC(=S)NC(=O)c2cc(-c3ccc(Cl)cc3)nc3ccccc23)cc1
EC50 [2]: < 0.06 µM (active)
IC50 [3]: > 66 µM (inactive)
IC50 [4]: > 66 µM (inactive)
EC50 (Streptococcus): < 0.06 µM (active)

O=S(=O)(c1cccc(-c2cn3cccnc3n2)c1)N1CCCCCC1
IC50 (Estrogen receptor): 22.3 µM (active)

CC1(C)c2cc(O)ccc2OC1N1CCOCC1 (stereo not given)
EC50 [5]: > 260 µM (inactive)

CCC(=O)c1ccc(OCC(=O)OCC(=O)N2CCc3ccccc3C2)cc1
IC50 (cells): 17.3 µM (active)

CC1=CC(=O)C=CC1=Nc1ccc(N(C)C)cc1
IC50 [3]: > 66 µM (inactive)
IC50 [4]: 61.6 µM (inactive)

COc1cc(OC)c(OC)cc1CN(C)CCc1ccccn1
EC50 [5]: > 260 µM (inactive)

Cc1ccc(NC(=O)c2cnn(-c3ccccc3)c2C)cc1
EC50 [5]: > 260 µM (inconclusive)

O=C(NCc1ccc2c(c1)OCO2)C1CCCN(S(=O)(=O)c2cccnc2)C1 (stereo not given)
IC50 (Aminopeptidase N): 70.7 µM (active)

CCCn1nnc(NC(=O)COc2ccc(CC)cc2)n1
IC50 (cells): 27.6 µM (active)

CSc1nc(NCc2ccco2)c2ccccc2n1
IC50 (Estrogen receptor): > 50 µM (not active)

Cc1ccc(-c2nnn(CC(=O)Nc3ccc4nn(-c5ccccc5)nc4c3)n2)o1
IC50 (Estrogen receptor): > 50 µM (not active)

Cc1cc(O)nc(-n2ncc(C#N)c2N)n1
EC50 [5]: > 260 µM (inactive)

COc1ccc(NC(=O)N(C)C[C@@H]2Oc3cc(-c4ccc(C)cc4)ccc3S(=O)(=O)N([C@@H](C)CO)C[C@H]2C)cc1
AC50 [1]: 5.06 µM (active)

COc1cccc(-c2nc(=S)c3c(n2CCCO)CCCC3)c1
IC50 [3]: > 66 µM (inactive)
IC50 [4]: > 66 µM (inactive)

Cc1ccc(CNC(=O)CSc2nc3ccsc3c(=O)n2NC(=O)c2ccccc2)cc1
IC50 (Aminopeptidase N): 11.1 µM (active)

COc1cc2nc(CSc3nc(-c4ccc(F)cc4)cs3)nc(O)c2cc1OC
EC50 [2]: > 150 µM (not active)
EC50 (Streptococcus): > 150 µM (not active)
EC50 (Streptokinase A): > 150 µM (not active)
EC50 [5]: > 260 µM (inactive)

O=C(COc1ccc2c(-c3ccccc3)cc(=O)oc2c1)N[C@@H](Cc1c[nH]c2ccc(O)cc12)C(=O)O
IC50 (Fatty acid synthase): 6.9 µM (active)

CCC(=O)Nc1nonc1-c1nc2ccccc2n1N(C(=O)CC)C(=O)CC
IC50 (Estrogen receptor): > 50 µM (not active)

Brc1ccc(-c2nnc(-c3cccnc3)c3conc23)cc1
IC50 (Estrogen receptor): 6.62 µM (active)

O=C(Nc1nnc(C2=COCCO2)o1)c1ccc(F)cc1
IC50 (cells): 6.55 µM (active)

COc1ccc2c3c(n(C)c2c1)[C@@H](CO)N(C(=O)Nc1ccc(F)cc1)CC31CN(C(=O)c2ccccc2F)C1
AC50 [1]: 4.35 µM (active)

CCS(=O)(=O)N1CCCCN2[C@H](CO)[C@H](c3ccc(-c4cccc(C#N)c4)cc3)[C@@H]2C1
AC50 [1]: 12.5 µM (active)

CN(C)CCc1nc2ccccc2c(=O)n1-c1ccccc1
EC50 [5]: > 260 µM (inactive)

CCN(CCCNC(=O)CCCN1C(=O)COc2ccc(C)cc21)c1cccc(C)c1
EC50 [5]: > 260 µM (inactive)

CCOC(=O)N1CCN(C(=O)C(=O)NNC(=O)COc2ccc(Cl)cc2)CC1
IC50 (Aminopeptidase N): 106 µM (active)

Cc1cc(C)n2nc(S(=O)(=O)Nc3c(Cl)cccc3Cl)nc2n1
IC50 (cells): 5.34 µM (active)

COc1ccc(CN2CC(=O)N3[C@H]4c5ccccc5OC[C@@H]4[C@H](c4ccccc4)[C@]3(C)C2=O)cc1
IC50 [3]: > 66 µM (inactive)
IC50 [4]: > 66 µM (inactive)

COC(=O)Cn1c(=O)c2c(nc3n2CC(C)CN3CCc2ccccc2)n(C)c1=O (stereo not given)
EC50 [5]: > 260 µM (inactive)

CO[C@@H]1CN(C)C(=O)c2cc(NC(=O)c3ccc(Oc4ccccc4)cc3)ccc2OC[C@H](C)NC[C@@H]1C
AC50 [1]: 5.99 µM (active)

O=C(O)/C(=C\c1ccc(-c2ccc(F)cc2)o1)c1ccccc1
IC50 (Aminopeptidase N): 51.4 µM (active)

CO[C@H]1CN(C)C(=O)c2cc(NC(=O)c3ccccc3F)ccc2OC[C@H](C)N(C)C[C@H]1C
AC50 [1]: > 39 µM (inactive)

O=C(Nc1nnc(SCc2ccccc2Cl)s1)c1cccc([N+](=O)[O-])c1
IC50 (Fatty acid synthase): 11 µM (active)

COc1ccccc1-c1ccc2c(c1)O[C@H](CN(C)S(=O)(=O)c1ccc(C)cc1)[C@H](C)CN([C@@H](C)CO)S2(=O)=O
AC50 [6]: 2.97 µM (active)
AC50 [7]: 2.84 µM (active)

CCOc1ccccc1OCCN1CCC(Cc2ccccc2)CC1
EC50 [8]: > 150 µM (inactive)
EC50 [9]: > 38 µM (not active)

COCC(=O)N1CC2(C1)CN(Cc1ccccc1F)[C@@H](CO)c1[nH]c3cc(OC)ccc3c12
AC50 [1]: 6.55 µM (active)

N#C/C(=C(\O)Nc1ccc(Cl)cc1)c1nc2ccccc2[nH]1
EC50 [10]: 35.1 µM (active)
IC50 (Estrogen receptor): 27.1 µM (active)
EC50 [11]: 31.9 µM (active)
